Results taken from patent US10875875B2, “Propionic acid derivatives and methods of use thereof” (Aviara Pharmaceuticals, Inc., priority 2017, dated 2020).

Target: α4β1 (Homo sapiens, UniProt P05556+P13612)
Experiment: α4β1 integrin inhibition, IC50
Type: binding
Conditions: read-out: α4β1 IC50

Chain of α4β1 (P13612 34-1032): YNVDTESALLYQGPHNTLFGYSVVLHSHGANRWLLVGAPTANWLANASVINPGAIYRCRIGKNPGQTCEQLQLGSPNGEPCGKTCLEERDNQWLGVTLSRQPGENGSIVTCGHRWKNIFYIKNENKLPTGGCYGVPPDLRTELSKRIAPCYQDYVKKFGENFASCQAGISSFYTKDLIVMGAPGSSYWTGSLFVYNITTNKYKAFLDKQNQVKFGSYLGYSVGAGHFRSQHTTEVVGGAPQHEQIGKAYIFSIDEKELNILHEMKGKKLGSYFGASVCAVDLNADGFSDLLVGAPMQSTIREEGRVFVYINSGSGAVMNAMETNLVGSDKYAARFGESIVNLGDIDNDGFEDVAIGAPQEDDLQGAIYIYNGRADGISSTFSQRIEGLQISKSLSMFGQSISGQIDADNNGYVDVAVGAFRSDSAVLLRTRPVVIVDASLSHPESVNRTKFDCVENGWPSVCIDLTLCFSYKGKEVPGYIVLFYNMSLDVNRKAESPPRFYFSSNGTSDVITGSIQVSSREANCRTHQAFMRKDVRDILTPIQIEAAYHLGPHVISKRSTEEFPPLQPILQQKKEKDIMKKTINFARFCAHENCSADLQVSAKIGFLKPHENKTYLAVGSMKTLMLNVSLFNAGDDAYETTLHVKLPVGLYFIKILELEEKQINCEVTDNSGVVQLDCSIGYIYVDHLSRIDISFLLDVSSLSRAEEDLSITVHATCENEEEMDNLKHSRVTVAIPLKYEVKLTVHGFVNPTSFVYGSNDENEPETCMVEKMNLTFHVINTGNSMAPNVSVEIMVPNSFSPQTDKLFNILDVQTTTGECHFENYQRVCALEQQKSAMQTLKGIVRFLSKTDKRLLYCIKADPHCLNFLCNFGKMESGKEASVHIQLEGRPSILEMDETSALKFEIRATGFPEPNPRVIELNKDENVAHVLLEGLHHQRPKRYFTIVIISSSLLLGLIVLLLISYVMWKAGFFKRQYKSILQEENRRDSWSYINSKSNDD
Chain of α4β1 (P05556 21-798): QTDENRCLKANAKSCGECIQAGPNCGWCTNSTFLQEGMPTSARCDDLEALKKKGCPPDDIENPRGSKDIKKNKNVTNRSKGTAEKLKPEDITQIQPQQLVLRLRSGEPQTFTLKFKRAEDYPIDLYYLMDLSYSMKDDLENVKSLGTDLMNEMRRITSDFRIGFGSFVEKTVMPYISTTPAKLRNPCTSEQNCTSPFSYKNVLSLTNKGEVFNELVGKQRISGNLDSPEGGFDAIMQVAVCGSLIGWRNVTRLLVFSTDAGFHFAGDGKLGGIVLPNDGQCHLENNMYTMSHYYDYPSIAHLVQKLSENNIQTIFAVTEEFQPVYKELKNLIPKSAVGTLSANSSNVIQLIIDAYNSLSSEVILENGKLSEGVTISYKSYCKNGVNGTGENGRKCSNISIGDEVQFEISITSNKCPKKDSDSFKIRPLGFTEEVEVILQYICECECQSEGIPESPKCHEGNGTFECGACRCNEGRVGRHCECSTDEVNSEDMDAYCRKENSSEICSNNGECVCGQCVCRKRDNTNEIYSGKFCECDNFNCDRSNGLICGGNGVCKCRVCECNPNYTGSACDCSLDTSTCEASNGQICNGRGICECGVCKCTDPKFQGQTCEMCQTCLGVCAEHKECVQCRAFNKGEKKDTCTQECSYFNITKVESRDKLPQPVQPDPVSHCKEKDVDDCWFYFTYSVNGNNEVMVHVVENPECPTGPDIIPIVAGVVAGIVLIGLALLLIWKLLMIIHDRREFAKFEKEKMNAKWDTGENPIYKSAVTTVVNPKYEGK

IC50	Structure (SMILES)
< 0.02 µM	Cc1cn(C)c(=O)c(NC(=O)NC(CC(=O)O)c2cccc(-c3ccccc3Cl)c2)c1O (centres unmarked) [1-473, sodium 3-(2′-chlorobiphenyl-3-yl)-3-(3-(1,5-dimethyl-4-oxido-2-oxo-1,2-dihydropyridin-3-yl)ureido)propanoate]
< 0.02 µM	COc1cc(-c2cccc(OC(F)(F)F)c2)cc([C@H](CC(=O)O)NC(=O)Nc2c(O)cc(C)n(C)c2=O)c1 [1-568, sodium (S)-3-(3-(1,6-dimethyl-4-oxido-2-oxo-1,2-dihydropyridin-3-yl)ureido)-3-(5-methoxy-3′-(trifluoromethoxy)biphenyl-3-yl)propanoate]
< 0.02 µM	COc1cc(-c2cccc(OC(F)(F)F)c2)cc([C@H](CC(=O)O)NC(=O)Nc2c(O)ccn(C)c2=O)c1 [1-565, sodium (S)-3-(5-methoxy-3′-(trifluoromethoxy)biphenyl-3-yl)-3-(3-(1-methyl-4-oxido-2-oxo-1,2-dihydropyridin-3-yl)ureido)propanoate]
< 0.02 µM	Cc1ccccc1-c1cc([C@H](CC(=O)O)NC(=O)Nc2c(O)ccn(C)c2=O)ccc1F [1-612, sodium (S)-3-(6-fluoro-2′-methylbiphenyl-3-yl)-3-(3-(1-methyl-4-oxido-2-oxo-1,2-dihydropyridin-3-yl)ureido)propanoate]
> 0.2 µM	CCn1cc(C)c(O)c(NC(=O)NC(CC(=O)O)c2cccc(-n3cccc(-c4ccccc4)c3=O)c2)c1=O (centres unmarked) [1-439, sodium 3-(3-(1-ethyl-5-methyl-4-oxido-2-oxo-1,2-dihydropyridin-3-yl)ureido)-3-(3-(2-oxo-3-phenylpyridin-1(2H)-yl)phenyl)propanoate]
> 0.2 µM	Cc1cc(O)c(NC(=O)N[C@@H](CC(=O)O)c2cccc(-c3ccc(F)cc3F)c2)c(=O)[nH]1 [1-557, sodium (S)-3-(2′,4′-difluorobiphenyl-3-yl)-3-(3-(6-methyl-4-oxido-2-oxo-1,2-dihydropyridin-3-yl)ureido)propanoate]
< 0.02 µM	Cc1ccc([C@H](CC(=O)O)NC(=O)Nc2c(O)ccn(C)c2=O)cc1-c1ccc(F)cc1F [1-541, sodium (S)-3-(2′,4′-difluoro-6-methylbiphenyl-3-yl)-3-(3-(1-methyl-4-oxido-2-oxo-1,2-dihydropyridin-3-yl)ureido)propanoate]
< 0.2 µM	Cc1cn(C)c(=O)c(NC(=O)NC(CC(=O)O)c2cccc(-c3cccc(Cl)c3)c2)c1O (centres unmarked) [1-472, sodium 3-(3′-chlorobiphenyl-3-yl)-3-(3-(1,5-dimethyl-4-oxido-2-oxo-1,2-dihydropyridin-3-yl)ureido)propanoate]
< 0.2 µM	COc1cccc(OC)c1-c1cccc([C@H](CC(=O)O)NC(=O)Nc2c(O)c(C)cn(C)c2=O)c1 [1-479, sodium (S)-3-(2′,6′-dimethoxybiphenyl-3-yl)-3-(3-(1,5-dimethyl-4-oxido-2-oxo-1,2-dihydropyridin-3-yl)ureido)propanoate]
< 0.02 µM	Cc1ccc(C)c(-c2cccc([C@H](CC(=O)O)NC(=O)Nc3c(O)c(C)cn(C)c3=O)c2)c1 [1-459, sodium (S)-3-(3-(1,5-dimethyl-4-oxido-2-oxo-1,2-dihydropyridin-3-yl)ureido)-3-(2′,5′-dimethylbiphenyl-3-yl)propanoate]
< 0.2 µM	Cc1cn(C)c(=O)c(NC(=O)NC(CC(=O)O)c2cccc(-c3cc(Cl)cc(Cl)c3)c2)c1O (centres unmarked) [1-486, sodium 3-(3′,5′-dichlorobiphenyl-3-yl)-3-(3-(1,5-dimethyl-4-oxido-2-oxo-1,2-dihydropyridin-3-yl)ureido)propanoate]
< 0.02 µM	Cc1cc(O)c(NC(=O)N[C@@H](CC(=O)O)c2cc(F)cc(-c3cccc(OC(F)(F)F)c3)c2)c(=O)n1C [1-606, sodium (S)-3-(3-(1,6-dimethyl-4-oxido-2-oxo-1,2-dihydropyridin-3-yl)ureido)-3-(5-fluoro-3′-trifluoromethoxybiphenyl-3-yl)propanoate]
< 0.02 µM	Cc1cn(C)c(=O)c(NC(=O)N[C@@H](CC(=O)O)c2cccc(-c3ccccc3F)c2)c1O [1-441, sodium (S)-3-(3-(1,5-dimethyl-4-oxido-2-oxo-1,2-dihydropyridin-3-yl)ureido)-3-(2′-fluorobiphenyl-3-yl)propanoate]
< 0.02 µM	Cn1ccc(O)c(NC(=O)N[C@@H](CC(=O)O)c2cccc(-n3cccn3)c2)c1=O [1-522, sodium (S)-3-(3-(1H-pyrazol-1-yl)phenyl)-3-(3-(1-methyl-4-oxido-2-oxo-1,2-dihydropyridin-3-yl)ureido)propanoate]
< 0.02 µM	COc1cccc(-c2cccc([C@H](CC(=O)O)NC(=O)Nc3c(O)c(C)cn(C)c3=O)c2)c1OC [1-504, sodium (S)-3-(2′,3′-dimethoxybiphenyl-3-yl)-3-(3-(1,5-dimethyl-4-oxido-2-oxo-1,2-dihydropyridin-3-yl)ureido)propanoate]
< 0.02 µM	COc1ccc(-c2cccc([C@H](CC(=O)O)NC(=O)Nc3c(O)ccn(C)c3=O)c2)cn1 [1-508, sodium (S)-3-(3-(6-methoxypyridin-3-yl)phenyl)-3-(3-(1-methyl-4-oxido-2-oxo-1,2-dihydropyridin-3-yl)ureido)propanoate]
< 0.02 µM	COc1ccc(-c2ccccc2)cc1[C@H](CC(=O)O)NC(=O)Nc1c(O)ccn(C)c1=O [1-596, sodium (S)-3-(4-methoxybiphenyl-3-yl)-3-(3-(1-methyl-4-oxido-2-oxo-1,2-dihydropyridin-3-yl)ureido)propanoate]
< 0.02 µM	Cc1cn(C)c(=O)c(NC(=O)N[C@@H](CC(=O)O)c2cccc(-c3cccc(Cl)c3)c2)c1O [1-499, sodium (S)-3-(3′-chlorobiphenyl-3-yl)-3-(3-(1,5-dimethyl-4-oxido-2-oxo-1,2-dihydropyridin-3-yl)ureido)propanoate]
< 0.2 µM	COc1cccc(-c2cccc([C@H](CC(=O)O)NC(=O)Nc3c(O)c(C)cn(C)c3=O)c2)c1 [1-460, sodium (S)-3-(3-(1,5-dimethyl-4-oxido-2-oxo-1,2-dihydropyridin-3-yl)ureido)-3-(3′-methoxybiphenyl-3-yl)propanoate]
< 0.2 µM	Cc1cn(C)c(=O)c(NC(=O)NC(CC(=O)O)c2cccc(-c3ccc(F)c(Cl)c3)c2)c1O (centres unmarked) [1-484, sodium 3-(3′-chloro-4′-fluorobiphenyl-3-yl)-3-(3-(1,5-dimethyl-4-oxido-2-oxo-1,2-dihydropyridin-3-yl)ureido)propanoate]
< 0.02 µM	Cc1ccccc1-c1cc([C@H](CC(=O)O)NC(=O)Nc2c(O)cc(C)n(C)c2=O)ccc1F [1-611, sodium (S)-3-(3-(1,6-dimethyl-4-oxido-2-oxo-1,2-dihydropyridin-3-yl)ureido)-3-(6-fluoro-2′-methylbiphenyl-3-yl)propanoate]
< 0.02 µM	Cn1ccc(O)c(NC(=O)N[C@@H](CC(=O)O)c2cccc(-c3ccc4c(c3)OCO4)c2)c1=O [1-516, sodium (S)-3-(3-(benzo[d][1,3]dioxol-5-yl)phenyl)-3-(3-(1-methyl-4-oxido-2-oxo-1,2-dihydropyridin-3-yl)ureido)propanoate]
< 0.02 µM	Cn1ccc(O)c(NC(=O)N[C@@H](CC(=O)O)c2cccc(-n3cccc3)c2)c1=O [1-507, sodium (S)-3-(3-(1H-pyrrol-1-yl)phenyl)-3-(3-(1-methyl-4-oxido-2-oxo-1,2-dihydropyridin-3-yl)ureido)propanoate]
